Assay results from ChEMBL document CHEMBL5346933, “Design and synthesis of novel arylurea derivatives of aryloxy(1-phenylpropyl) alicyclic diamines with antimicrobial activity against multidrug-resistant Gram-positive bacteria” (Eur J Med Chem, 2023).
≈ marks a conversion by molar mass, not a printed value.

Columns and labels:
Cell membrane [1] = experiment: Induction of cell membrane depolarization in Staphylococcus aureus Newman assessed as bacterial cells with polarized membrane potential at 500 uM incubated for 25 to 30 mins by DiOC2(3) probe based flow cytometry (reference value: 94.3%); type: subcellular; conditions: time 25-30 min
Cell membrane [2] = experiment: Induction of cell membrane depolarization in Staphylococcus aureus Newman assessed as bacterial cells with depolarized membrane potential at 500 uM incubated for 25 to 30 mins by DiOC2(3) probe based flow cytometry (reference value: 1.6%); type: subcellular; conditions: time 25-30 min
Cell membrane [3] = experiment: Induction of cell membrane depolarization in methicillin-resistant Staphylococcus aureus 19449 assessed as bacterial cells with polarized membrane potential at 500 uM incubated for 25 to 30 mins by DiOC2(3) probe based flow cytometry (reference value: 98.8%); type: subcellular; conditions: time 25-30 min
Cell membrane [4] = experiment: Induction of cell membrane depolarization in methicillin-resistant Staphylococcus aureus 19449 assessed as bacterial cells with depolarized membrane potential at 500 uM incubated for 25 to 30 mins by DiOC2(3) probe based flow cytometry (reference value: 0.7%); type: subcellular; conditions: time 25-30 min
Cell membrane [5] = experiment: Induction of cell membrane depolarization in vancomycin-resistant Enterococcus faecium clinical strain assessed as bacterial cells with polarized membrane potential at 500 uM incubated for 25 to 30 mins by DiOC2(3) probe based flow cytometry (reference value: 96.8%); type: subcellular; conditions: time 25-30 min
Cell membrane [6] = experiment: Induction of cell membrane depolarization in vancomycin-resistant Enterococcus faecium clinical strain assessed as bacterial cells with depolarized membrane potential at 500 uM incubated for 25 to 30 mins by DiOC2(3) probe based flow cytometry (reference value: 0.8%); type: subcellular; conditions: time 25-30 min
Cell membrane [7] = experiment: Induction of cell membrane depolarization in Staphylococcus aureus Newman assessed as ratio of red to green fluorescence intensity at 500 uM incubated for 25 to 30 mins by DiOC2(3) probe based flow cytometry; type: subcellular; conditions: time 25-30 min
Cell membrane [8] = experiment: Induction of cell membrane depolarization in methicillin-resistant Staphylococcus aureus 19449 assessed as ratio of red to green fluorescence intensity at 500 uM incubated for 25 to 30 mins by DiOC2(3) probe based flow cytometry; type: subcellular; conditions: time 25-30 min
Cell membrane [9] = experiment: Induction of cell membrane depolarization in vancomycin-resistant Enterococcus faecium clinical strain assessed as ratio of red to green fluorescence intensity at 500 uM incubated for 25 to 30 mins by DiOC2(3) probe based flow cytometry; type: subcellular; conditions: time 25-30 min
Staphylococcus aureus [10] = experiment: Antibacterial activity against methicillin-susceptible Staphylococcus aureus ATCC 25923 assessed as inhibition of bacterial growth incubated for 18 hrs by broth microdilution method; type: functional
[11] = system: Staphylococcus epidermidis; experiment: Antibacterial activity against methicillin-susceptible Staphylococcus epidermidis ATCC 12228 assessed as inhibition of bacterial growth incubated for 18 hrs by broth microdilution method; type: functional
Streptococcus pneumoniae [12] = experiment: Antibacterial activity against Streptococcus pneumoniae ATCC 49619 assessed as inhibition of bacterial growth incubated for 18 hrs by broth microdilution method; type: functional
Staphylococcus aureus [13] = experiment: Antibacterial activity against methicillin-resistant Staphylococcus aureus clinical strain 19449 assessed as inhibition of bacterial growth incubated for 18 hrs by broth microdilution method; type: functional
Staphylococcus aureus [14] = experiment: Antibacterial activity against vancomycin-intermediate Staphylococcus aureus ATCC 700699 assessed as inhibition of bacterial growth incubated for 18 hrs by broth microdilution method; type: functional
[15] = system: Staphylococcus epidermidis; experiment: Antibacterial activity against linezolid-resistant Staphylococcus epidermidis NIL 4399/19 assessed as inhibition of bacterial growth incubated for 18 hrs by broth microdilution method; type: functional
Staphylococcus aureus [16] = experiment: Antibacterial activity against biofilm producer Staphylococcus aureus RN450 assessed as inhibition of bacterial growth incubated for 18 hrs by broth microdilution method; type: functional
[17] = system: Staphylococcus epidermidis; experiment: Antibacterial activity against biofilm producer Staphylococcus epidermidis ATCC 35984 assessed as inhibition of bacterial growth incubated for 18 hrs by broth microdilution method; type: functional
Enterococcus faecalis = experiment: Antibacterial activity against Enterococcus faecalis ATCC 29212 assessed as inhibition of bacterial growth incubated for 18 hrs by broth microdilution method; type: functional
Enterococcus faecium = experiment: Antibacterial activity against vancomycin-resistant Enterococcus faecium assessed as inhibition of bacterial growth incubated for 18 hrs by broth microdilution method; type: functional
Staphylococcus aureus [18] = experiment: Antibacterial activity against Staphylococcus aureus Newman assessed as inhibition of bacterial growth incubated for 18 hrs by broth microdilution method; type: functional
Streptococcus pneumoniae [19] = experiment: Antibacterial activity against Oxacillin-resistant Streptococcus pneumoniae O/19/4541 assessed as inhibition of bacterial growth incubated for 18 hrs by broth microdilution method; type: functional
Streptococcus pneumoniae [20] = experiment: Antibacterial activity against macrolides-lincosamides and streptogramins B-resistant Streptococcus pneumoniae O/19/4199 assessed as inhibition of bacterial growth incubated for 18 hrs by broth microdilution method; type: functional

In the case of N#CC(C#N)=NNc1cccc(Cl)c1, the Activity (Cell membrane [1]) is reported as 0%, the Activity (Cell membrane [2]) is reported as 94.5% and the Activity (Cell membrane [3]) is reported as 0.3%. The Activity (Cell membrane [4]) was 99%, the Activity (Cell membrane [5]) was 6.5% and the Activity (Cell membrane [6]) was 88.1%. For the same compound, the Ratio (Cell membrane [7]) was 0.33, the Ratio (Cell membrane [8]) was 0.34 and the Ratio (Cell membrane [9]) was 0.29.

CC(=O)NC[C@H]1CN(c2ccc(N3CCOCC3)c(F)c2)C(=O)O1 [LINEZOLID] was tested, and the MIC (Staphylococcus aureus [10]) was 3.12 µg/mL (≈ 9.26 µM), the MIC [11] was 1.56 µg/mL (≈ 4.62 µM) and the MIC (Streptococcus pneumoniae [12]) was 0.78 µg/mL (≈ 2.31 µM). The MIC (Staphylococcus aureus [13]) was 3.12 µg/mL (≈ 9.26 µM), the MIC (Staphylococcus aureus [14]) was 1.56 µg/mL (≈ 4.62 µM) and the MIC [15] was 250 µg/mL (≈ 741 µM). It also gave an MIC (Staphylococcus aureus [16]) of 0.78 µg/mL (≈ 2.31 µM), an MIC [17] of 1.56 µg/mL (≈ 4.62 µM) and an MIC (Enterococcus faecalis) of 1.56 µg/mL (≈ 4.62 µM). The MIC (Enterococcus faecium) was 0.78 µg/mL (≈ 2.31 µM), the MIC (Staphylococcus aureus [18]) was 1.56 µg/mL (≈ 4.62 µM) and the MIC (Streptococcus pneumoniae [19]) was 1.56 µg/mL (≈ 4.62 µM). It also gave an MIC (Streptococcus pneumoniae [20]) of 1.56 µg/mL (≈ 4.62 µM).
